The source of these data is publication PMC11314199, “Design, Synthesis, and Biological Evaluations of Novel Thiazolo[4,5-d]pyrimidine Corticotropin Releasing Factor (CRF) Receptor Antagonists as Potential Treatments for Stress Related Disorders and Congenital Adrenal Hyperplasia (CAH)” (Molecules, 2024).

The target in experiment [1] is T1, human CRF1 receptors (Homo sapiens, UniProt P34998).
T1 construct: expressed in transfected cells
T1 sequence (P34998 24-415): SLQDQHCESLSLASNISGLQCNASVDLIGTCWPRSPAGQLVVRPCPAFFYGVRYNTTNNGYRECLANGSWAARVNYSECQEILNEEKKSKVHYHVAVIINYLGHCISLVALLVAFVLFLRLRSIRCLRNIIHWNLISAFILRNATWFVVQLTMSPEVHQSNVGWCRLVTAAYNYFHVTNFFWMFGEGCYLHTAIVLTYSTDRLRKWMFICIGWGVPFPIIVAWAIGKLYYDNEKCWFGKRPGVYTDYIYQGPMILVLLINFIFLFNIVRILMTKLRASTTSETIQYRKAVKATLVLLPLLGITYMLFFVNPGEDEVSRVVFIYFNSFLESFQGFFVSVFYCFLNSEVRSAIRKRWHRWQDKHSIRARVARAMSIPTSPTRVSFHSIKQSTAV
The experiment can be described thus: Primary screening: inhibition of specific [125I]-Tyr0 sauvagine binding at a single concentration of 100 nM. Conditions: 100 nM test compound; membranes from HEK 293 cells stably expressing CRF1 receptors. As to the method: An investigation of the specific binding was carried out in membrane homogenates extracted from human embryonic kidney (HEK 293) cells stably expressing CRF1 receptors, a standard methodology previously detailed in several of our published works. This experimental approach closely adheres to the original Gkountelias et al. procedure.
The CRF1 receptor binding affinities for final target compounds 1–23 were evaluated. First, the ability of the entire test compounds to inhibit the specific binding of the radiolabelled ligand [^125I]-Tyr^0 sauvagine to membranes from HEK 293 cells stably expressing the CRF1 receptors was evaluated at a single concentration of 100 nM.
Figure 5 % inhibition of [^125I]-Try^0 sauvagine-specific binding by 100 nM of test compounds on membranes from HEK293 stably expressing human CRF1 receptors. In the absence of the test compound, the inhibition is 0%.
In this protocol, a radiolabeled agonist, which is [^125I]-Tyr^0-sauvagine is used. The cell culture medium that was used to grow these cells consisted of DMEM/F12 (1:1) supplemented with 10% bovine calf serum, 3.15 g/L glucose, and […] of the antibiotic geneticin. The cells were then incubated at a temperature of 37 °C with 5% CO2. After a suitable time was given to grow the expected number of cells to the required cell density, the cells were washed with phosphate-buffered saline (PBS) at a neutral pH of 7.2–7.3. This was followed by treatment with 2 mM EDTA containing PBS (PBS/EDTA). The suspension of cells was pitted under centrifugation at a speed of 1000× g for a period of 5 min, after which the resulting pellets were allowed to be homogenized in 1.5 mL of buffer H with the following composition: 20 mM HEPES, 10 mM MgCl2, 2 mM EGTA, 0.2 mg/mL bacitracin antibiotic, and 0.93 mg/mL aprotinin at pH 7.2 at 4 °C. The homogenizer used was a Janke & Kunkel IKA Ultra Turrax T25 homogenizer (IKA Werke GmbH & Co. KG, Staufen, Germany). The homogenates were then put into a centrifuge to be centrifuged at a speed of 16,000× g, for a period of 10 min, at 4 °C. The resulting membrane pellets were again suspended in a homogenizer in 1 mL of buffer B, which is buffer H containing BSA (0.1%) at a pH of 7.2 at 20 °C. After that, the membrane suspensions were diluted using buffer B and 50 μL aliquots of the suspensions and 20–25 pM of the radiolabeled ligand [^125I]-Tyr^0sauvagine with (test) and then without (positive control) the compounds to be evaluated at a single concentration of 100 nM.

Experiment [2] has as its target T1, human CRF1 receptors. The experiment can be described thus: Competition binding of [125I]-Tyr0 sauvagine under equilibrium conditions (secondary assay). Particulars: [125I]-Tyr0 sauvagine competition, HEK 293 membranes expressing CRF1 receptors. As to the method: In the second assay, the inhibitory effects measured by the lead compounds were compared to those of the standard drug antalarmin.
Figure 6 Competitive binding isotherms of compounds 2, 5, and 14 (a), compounds 10 and 23 (b), compounds 19 and 20 (c) and 21 and 22 (d) to human CRF1 receptors. Antalarmin was used as a standard drug.
In this competitive binding assay, different and increasing concentrations of the test compounds were used. The final volume of the tubes was adjusted to 0.2 mL using buffer B (the composition mentioned earlier). The test mixtures were then incubated at a temperature of 21 °C for a period of two hours. Then it was filtered through presoaked Whatman 934AH filter papers (in a solution of 0.3% polyethylene imine for 1 h at a temperature of 4 °C). The filter papers were then washed with a solution of 0.5 mL of ice-cold PBS containing 0.01% Triton X-100, and the washing process was repeated three times at pH 7.1. To measure the radioactivity, a gamma radiation counter was utilized. The quantity of membranes used was adjusted to make sure that the specific binding is always equal to or less than 10% of the total concentration of the added radiolabeled sauvagine. The specific [^125I]-Tyr^0-sauvagine binding was defined as the total binding minus the non-specific binding in the presence of 1000 nM of the standard antagonist Antalarmin. Non-linear regression analysis was used for data analysis, and Log IC50 values for the test compounds in comparison to the standard antagonist antalarmin were calculated by fitting the data from the competition studies into a one-site competition model. The statistical analysis was performed using Prism 4.0 (GraphPad Software, San Diego, CA, USA).
Statistical analysis was performed using Prism 4.0 (Graph Pad Software, San Diego, CA, USA). Non-linear regression analysis was used in the competitive binding studies. Log IC50 values were calculated by fitting the data from the competition studies to a one-site competition model.

The test system of experiment [3] is CRF1R. Set-up: method as in PMID 7846062. Particulars: cited from earlier work.

Like-named read-outs stand apart in the source and are kept apart here. Some results are limits rather than exact numbers.

In the case of `CCCCCN(CCCCC)c1nc(C)nc2c1sc(=NC)n2-c1ccc(C(C)C)cc1Br` [Compound 11, 7-(N,N-Dipentylamino)-2-(methylimino)-5-methyl-3-(2-bromo-4-isopropylphenyl)-2,3-dihydrothiazolo[4,5-d]pyrimidine], the “% inhibition of [125I]-Tyr0 sauvagine-specific binding” value (“% inhibition” below) in experiment [1] was “reduced activity compared to compounds 10 and 13”.

Turning to `CCCN(CC1CC1)c1nc(C)nc2c1s/c(=N\C)n2-c1ccc(OC)cc1C` [Compound 22, 7-(N-Propyl-N-(cyclopropylmethyl))amino-2-(methylimino)-5-methyl-3-(2-methyl-4-methoxylphenyl)-2,3-dihydrothiazolo[4,5-d]pyrimidine], in experiment [2] (read-out: IC50), the IC50 turned out to be 91.6 nM. Also, in experiment [1], the “% inhibition” value was “significantly higher inhibitory effects than compounds 9 and 17”; the inhibition at 0.1 µM is over 50%.

As to Corticotropin-releasing factor [CRF], the “binding affinity to CRF1R relative to binding to CRF2R” value in experiment [3] was “almost eight times higher”.

Take `CN=c1sc2c(N(CCOC)CCOC)nc(C)nc2n1-c1ccc(C(C)C)cc1Br` [Compound 10, 7-(N,N-Bis(2-methoxyethyl)amino)-2-(methylimino)-5-methyl-3-(2-bromo-4-isopropylphenyl)-2,3-dihydrothiazolo[4,5-d]pyrimidine]: the IC50 in experiment [2] (read-out: IC50) stood at 31 nM. Also, the inhibition at 0.1 µM in experiment [1] was over 50%.

As for `CCCCN(CC)c1nc(C)nc2c1sc(=NC)n2-c1ccc(OC)cc1C` [Compound 20, 7-(N-Butyl-N-ethylamino)-2-(methylimino)-5-methyl-3-(2-methyl-4-methoxylphenyl)-2,3-dihydrothiazolo[4,5-d]pyrimidine], the IC50 in experiment [2] (read-out: IC50) is 9.16 nM. The same compound showed an inhibition at 0.1 µM in experiment [1] of over 50%.

On to `CCCN(CCC)c1nc(C)nc2c1sc(=NC)n2-c1ccc(Cl)cc1Cl` [Compound 2, 7-(N,N-Dipropylamino)-2-(methylimino)-5-methyl-3-(2,4-dichlorophenyl)-2,3-dihydrothiazolo[4,5-d]pyrimidine], for which the IC50 in experiment [2] (Log IC50 as printed (negative sign), read-out: Log IC50 ± SE (converted)) is 6.03 nM; in experiment [2] (read-out: IC50), 6.1 nM. In experiment [1], this compound gave an inhibition at 0.1 µM of over 50%.

With `CCCC(CCC)Nc1nc(C)nc2c1sc(=NC)n2-c1ccc(C)cc1C` [Compound 19, 7-(N-Heptan-4-yl)amino-2-(methylimino)-5-methyl-3-(2,4-dimethylphenyl)-2,3-dihydrothiazolo[4,5-d]pyrimidine], the IC50 in experiment [2] (read-out: IC50) is 41.1 nM. This compound had an inhibition at 0.1 µM in experiment [1] of over 50%.

On to `CCCCN(CC)c1nc(C)nc2c1c(C)c(C)n2-c1c(C)cc(C)cc1C` [antalarmin, reference compound], for which the IC50 in experiment [2] (read-out: IC50) was found to be 16.6 nM.

For `CCCCN(CC)c1nc(C)nc2c1sc(=NC)n2-c1ccc(C)cc1C` [Compound 14, 7-(N-Butyl-N-ethylamino)-2-(methylimino)-5-methyl-3-(2,4-dimethylphenyl)-2,3-dihydrothiazolo[4,5-d]pyrimidine], the IC50 in experiment [2] (read-out: IC50) was found to be 144 nM. The inhibition at 0.1 µM in experiment [1] was over 50%.

Turning to `CCCN(CCC)c1nc(C)nc2c1sc(=NC)n2-c1ccc(OC)cc1C` [Compound 21, 7-(N,N-Dipropylamino)-2-(methylimino)-5-methyl-3-(2-methyl-4-methoxylphenyl)-2,3-dihydrothiazolo[4,5-d]pyrimidine], the IC50 in experiment [2] (read-out: IC50) stood at 13.1 nM. The inhibition at 0.1 µM in experiment [1] was over 50%.

For `CCCN(CC1CC1)c1nc(C)nc2c1s/c(=N\C)n2-c1ccc(Cl)cc1Cl` [Compound 5, 7-(N-Propyl-N-(cyclopropylmethyl))amino-2-(methylimino)-5-methyl-3-(2,4-dichlorophenyl)-2,3-dihydrothiazolo[4,5-d]pyrimidine], the IC50 in experiment [2] (read-out: IC50) stood at 11.1 nM. In addition, in experiment [1], the “% inhibition” value was “significantly higher inhibitory effects than compounds 9 and 17”; the inhibition at 0.1 µM was over 50%.

Consider `CCC(CC)Nc1nc(C)nc2c1sc(=NC)n2-c1ccc(OC)cc1C` [Compound 23, 7-(N-Pentan-3-yl)amino-2-(methylimino)-5-methyl-3-(2-methyl-4-methoxylphenyl)-2,3-dihydrothiazolo[4,5-d]pyrimidine], for which the IC50 in experiment [2] (read-out: IC50) came out at 111 nM. Further, the inhibition at 0.1 µM in experiment [1] is over 50%.
